{"source": "paper PMC2912498", "about": "(Cancer research, 2010)", "key": {"PP1": {"test_system": "PP1", "format": "biochemical"}, "free β-catenin [1]": {"test_system": "free β-catenin", "format": "cell-based, human"}, "Xenopus laevis embryos": {"test_system": "Xenopus laevis embryos", "format": "in vivo", "conditions": "added at the 4-16 cell stage"}, "[2]": {"test_system": "U2OS GFP-β-catenin human osteosarcoma cells", "format": "cell-based"}, "[3]": {"test_system": "HCT116 (oncogenic β-catenin)", "format": "cell-based, human", "conditions": "read-out: HCT116 (oncogenic β-catenin) GI50; 72h"}, "c-myc promoter": {"test_system": "c-myc promoter", "format": "cell-based, human"}, "PP2A": {"test_system": "PP2A", "format": "biochemical"}, "[4]": {"test_system": "TCF-dependent transcription", "format": "cell-based, human"}, "[5]": {"test_system": "HCT116 human colon cancer cell", "format": "cell-based"}, "[6]": {"test_system": "TCF-dependent transcription", "format": "cell-based, human", "remark": "listed apart in the source"}, "recombinant GSK3": {"test_system": "recombinant GSK3", "format": "biochemical"}, "[7]": {"test_system": "TCF-dependent transcription", "format": "cell-based, human", "conditions": "read-out: Reporter IC50; 7dF3 reporter activity"}, "SW480 (APC mutant)": {"test_system": "SW480 (APC mutant)", "format": "cell-based, human", "conditions": "read-out: SW480 (APC mutant) GI50; 72h"}, "β-catenin [8]": {"test_system": "β-catenin", "format": "cell-based, mouse"}, "β-catenin [9]": {"test_system": "β-catenin", "format": "cell-based, mouse", "remark": "listed apart in the source"}, "[10]": {"test_system": "GSK-3 dependent Tau phosphorylation", "format": "cell-based, human"}, "LEF-1 mRNA": {"test_system": "LEF-1 mRNA", "format": "cell-based, human"}, "Zebrafish embryos": {"test_system": "Zebrafish embryos", "format": "in vivo", "conditions": "added at the 16-cell stage"}, "CCD841Co (Control)": {"test_system": "CCD841Co (Control)", "format": "cell-based, human", "conditions": "read-out: CCD841Co (Control) GI50; 96h; >> = no growth inhibition at the highest concentration tested"}, "SNU475 (Axin mutant)": {"test_system": "SNU475 (Axin mutant)", "format": "cell-based, human", "conditions": "read-out: SNU475 (Axin mutant) GI50; 96h"}, "HT29 (APC mutant)": {"test_system": "HT29 (APC mutant)", "format": "cell-based, human", "conditions": "read-out: HT29 (APC mutant) GI50; 72h"}, "survivin promoter": {"test_system": "survivin promoter", "format": "cell-based, human"}, "free β-catenin [11]": {"test_system": "free β-catenin", "format": "cell-based, human", "conditions": "SW480 cells"}, "Tyrosine Phosphatase": {"test_system": "Tyrosine Phosphatase", "format": "biochemical"}}, "note": "Where two headings read alike, the source gives them in different places.", "data": [{"substance": "CCT031374", "values": [{"measurement": "PP1 enzyme activity", "setting": "PP1", "result": "no activity"}, {"measurement": "free β-catenin levels", "setting": "free β-catenin [1]", "result": "blocked free β-catenin levels"}, {"measurement": "effect on Xenopus embryo development", "setting": "Xenopus laevis embryos", "result": "did not show clear responses"}, {"measurement": "formation of GFP-β-catenin aggregates", "setting": "[2]", "result": "induced formation of GFP-β-catenin aggregates"}, {"measurement": "GI50", "setting": "[3]", "result": 13.9, "unit": "µM"}, {"measurement": "activity against c-myc promoter luciferase reporter", "setting": "c-myc promoter", "result": "showed activity"}, {"measurement": "PP2A enzyme activity", "setting": "PP2A", "result": "no activity"}, {"measurement": "TCF-dependent transcription (Topflash)", "setting": "[4]", "result": "reduced TCF-dependent transcription"}, {"measurement": "apoptosis shown by caspase 3 activity", "setting": "[5]", "result": "inducing apoptosis"}, {"measurement": "caspase activity relative to the other compounds", "setting": "[5]", "result": "almost two times more caspase activity than the other compounds"}, {"measurement": "TCF-dependent transcription induced by stabilized β-catenin (N-terminal deletion of 89 amino acids)", "setting": "[6]", "result": "blocked TCF-dependent transcription"}, {"measurement": "inhibition of recombinant GSK3", "setting": "recombinant GSK3", "result": "did not inhibit"}, {"measurement": "IC50", "setting": "[7]", "result": 6.1, "unit": "µM"}, {"measurement": "GI50", "setting": "SW480 (APC mutant)", "result": 13.2, "unit": "µM"}, {"measurement": "time to increased β-catenin degradation (pulse chase)", "setting": "β-catenin [8]", "result": "≤ 10", "unit": "min"}, {"measurement": "BIO-induced accumulation / levels of β-catenin", "setting": "β-catenin [9]", "result": "prevented BIO-induced accumulation of β-catenin"}, {"measurement": "degradation of endogenous wild-type β-catenin stabilized by BIO", "setting": "β-catenin [9]", "result": "increased the degradation"}, {"measurement": "degradation of β-catenin stabilized by Wnt-3A and LiCl", "setting": "β-catenin [9]", "result": "resistant to degradation"}, {"measurement": "degradation of β-catenin stabilized with MG132", "setting": "β-catenin [9]", "result": "not degraded"}, {"measurement": "nuclear and cytosolic β-catenin pools", "setting": "β-catenin [9]", "result": "reduction in both nuclear and cytosolic β-catenin pools"}, {"measurement": "time to reduce levels of BIO-stabilized β-catenin", "setting": "β-catenin [9]", "result": "≤ 60", "unit": "min"}, {"measurement": "β-catenin N-terminal phosphorylation", "setting": "β-catenin [9]", "result": "did not increase β-catenin N-terminal phosphorylation"}, {"measurement": "β-catenin degradation products characteristic of calpain-induced proteolysis", "setting": "β-catenin [9]", "result": "failed to induce β-catenin degradation products"}, {"measurement": "reversal of the BIO block of Tau phosphorylation", "setting": "[10]; HEK293, BIO plus 20μM CCT031374", "result": "largely failed to reduce the BIO block of Tau phosphorylation"}, {"measurement": "endogenous LEF-1 mRNA levels", "setting": "LEF-1 mRNA", "result": "showed activity against endogenous LEF-1 mRNA levels"}, {"measurement": "effect on Zebrafish embryo development", "setting": "Zebrafish embryos", "result": "did not show clear responses"}, {"measurement": "GI50", "setting": "CCD841Co (Control)", "result": "> 44", "unit": "µM"}, {"measurement": "GI50", "setting": "SNU475 (Axin mutant)", "result": 9.6, "unit": "µM"}, {"measurement": "GI50", "setting": "HT29 (APC mutant)", "result": 11.5, "unit": "µM"}, {"measurement": "activity against survivin promoter luciferase reporter", "setting": "survivin promoter", "result": "showed activity"}, {"measurement": "free β-catenin levels", "setting": "free β-catenin [11]", "result": "not altered"}, {"measurement": "Tyrosine Phosphatase enzyme activity", "setting": "Tyrosine Phosphatase", "result": "no activity"}]}, {"substance": "6-bromoindirubin-3′-oxime [BIO, reference compound]", "values": [{"measurement": "GSK-3 dependent Tau phosphorylation on Thr-181", "setting": "[10]; HEK293", "result": "reduce GSK-3 dependent Tau phosphorylation on Thr-181"}]}]}
